From US20150045387A1, “Bi-Aromatic And Tri-Aromatic Compounds As NADPH Oxidase 2 (Nox2) Inhibitors” (The University of Surrey, priority 2011, published 2015) come the findings set out here.

The subject of data set [1] is human liver hepatocyte cells (HepG2). Description: cell viability by trypan blue exclusion and viable cell number counting, HepG2. The format is cell-based. The settings on record: HepG2, LMH001 5 and 10 μM, 24 h, trypan blue exclusion. The method, then:
FIG. 7 is a graph showing no cytotoxicity of LMH001 on living mouse microvascular endothelial cells (SVEC4-10) and human liver hepatocyte cells (HepG2), assessed by trypan blue exclusion and viable cell number counting. Cells were cultured with LMH001 (5 and 10 μM) for 24 h. Cell viabilities of SVEC4-10 cells and HepG2 cells in the presence of LMH001 (5 and 10 μM) were expressed as % of alive cells compared to cells in the absence of LMH001 (control, 100%). Results are presented as mean±SD (n=3).
HepG2 is a human hepatocytic cell line (ATCC No. HB-8065) that was originally derived from liver tissue with a well differentiated hepatocellular carcinoma. HepG2 cells have been proven to be a suitable in vitro model system for the study of human hepatocytes, and the study of liver metabolism and toxicity. […]
Cell viability and membrane integrity in the presence and absence of LMH001 were assessed using the trypan blue exclusion assay as described previously (15). […] At the time of experiment, cells were harvested by 0.25% Trypsin/EDTA, pelleted, resuspended in serum free medium and counted using a haemocytometer in the presence of trypan blue (0.4%) solution. The number of viable cells was calculated as a percentage of total cells.

Data set [2] has as its system human lung alveolar epithelial cancer cells (A549 cells). Description: EGF-induced cell proliferation of A549 cells (cell counting). Format: cell-based. To be noted: LMH001 5 μM, 24 h. On the procedure:
A549 cells were seeded at equal number the day before experiments and then stimulated with or without […] (EGF, 10 ng/ml) for 24 h in the presence or absence of LMH001 (5 μM). Cells were then trypsinized and counted. Cell homogenates were used for measuring O2.^− production by lucigenin-chemiluminescence in the presence of NADPH (100 μM).
A549 is a human lung adenocarcinoma epithelial cell line. A549 cells were grown in DMEM, containing 10% (v/v) heat inactivated foetal calf serum, 100 U/mL penicillin and […] streptomycin, in a humidified atmosphere at 37° C. with 5% CO2.

In a further data set the test system is SVEC4-10 cells. The experiment in a line: normal cell proliferation, MTS assay, SVEC4-10. The settings on record: SVEC4-10, LMH001 up to 10 μM, 24 h. The format is cell-based, mouse. The method, then: A) SVEC4-10 cells and HepG2 cells were cultured in the presence or absence of LHM001 (0-10 μM) for 24 h and tested for cell proliferation using a MTS assay kit. B) HL-60 cells were cultured in the presence or absence of LMH001 (0-10 μM), and cell proliferation was examined at 6, 12 and 24 h of culture.
The mouse lymph node microvascular endothelial cell line (SVEC4-10) was from the American Type Culture Collection (CRL-2167) and grown in DMEM, containing 10% (v/v) heat inactivated foetal calf serum, 100 U/mL penicillin and […] streptomycin, in a humidified atmosphere at 37° C. with 5% CO2.
The ex vivo proliferative capabilities of isolated BMSC or cultured cells were analyzed using the MTS proliferation assay. BMSC were suspended in Dulbecco's modified Eagle's medium supplemented with 5% fetal bovine serum (Sigma), 100 U/mL penicillin and 100 μg/mL streptomycin, and plated in 1% gelatin coated 96-well plates at a density of 1×10^5 cells/well in triplicate. After 24 hours in culture medium containing LMH001 (0-10 μM), proliferation was assessed using the MTS (CellTiter 96 AQ; Promega, Madison, USA) assay according to the manufacturer's protocol. The absorbance at 490 nm was read using an ELISA plate reader (Perkin elmer), and the proliferation index calculated relative to the controls. The mean of 3 blank readings was subtracted from each corrected value.

Consider `O=C(OCc1cccc(O)c1O)c1ccc(O)c(CO)c1` [LMH001, (2,3,-dihydroxyphenyl)methyl 4-hydroxy-3-(hydroxymethyl)benzoate], for which, in data set [1], the “cell viability (% of alive cells vs control)” value is given as “no significant difference”. Moreover, the “EGF-induced A549 cell proliferation” value in data set [2] (EGF 10 ng/ml, cells counted) is “inhibited completely”. Further, the “A549 cell proliferation, LMH001 alone” value in data set [2] (no EGF, compared to medium only) is “no significant effect”. The “normal cell proliferation under physiological condition” value in the data set on SVEC4-10 cells is “no significant effect”.
